Results reported in US20260199323A1, “LIGAND COMPOUNDS FOR E3 UBIQUITIN LIGASE, PROTEIN DEGRADERS DEVELOPED ON BASIS OF LIGAND COMPOUNDS, AND USES THEREOF” (GLUETACS THERAPEUTICS (SHANGHAI) CO., LTD., priority 2021, published 2026).
Like-named read-outs stand apart in the source and are kept apart here. Values belong to the molecule of their own block, whether it stands above or below them.

Columns and labels:
[1] = test system: PC-9; assay: CCK-8 tumor cell proliferation, PC-9; assay type: cell-based, Human; conditions: Homo sapiens; Table 15, ALK inhibitor based; PC-9; read-out: IC50 inhibiting proliferation of tumor cells, PC-9
[2] = test system: MDA-MB-231; assay: CCK-8 tumor cell proliferation, MDA-MB-231; assay type: cell-based, Human; conditions: Homo sapiens, MDA-MB-231, read-out: IC50 inhibiting proliferation of tumor cells, MDA-MB-231
In short: (§1)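 Authenticated cells, kept at 37 °C and 5% CO2, were given compound a day after plating; doses spanned 10 levels in 5-fold decrements from 10 μM. IC50 values come from CCK-8 viability readings.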

[3] = test system: HCC827; assay: CCK-8 tumor cell proliferation, HCC827; assay type: cell-based, Human; conditions: for IC50: Homo sapiens, HCC827, read-out: IC50 inhibiting proliferation of tumor cells, HCC827; for IC50 for inhibiting the proliferation of tumor cells, HCC827: Table 11, designed based on EGFR inhibitors, 96 h
Description: The tumor cells used herein were cultured in a cell culture medium listed in table 4 at 37° C. in an incubator with 5% CO2.
(§2) After 24 h, 100 μL of the inoculated cells were treated with 0.5 μL of the compounds of the present disclosure (including the compounds in Tables 1 and 3, and compounds of examples) at 10 different successively decreasing concentrations (starting at the highest concentration of 10 μM; 5-fold serial dilutions). After the cells were treated with the compounds of the present disclosure for a period of time, the cell viability detection reagent was added to the culture medium for cell viability assessment according to the instructions provided with the CCK-8 kit. […] The growth inhibition of the compounds of the present disclosure on cells was plotted by Prism Graphpad software, and the IC50 values of the compounds of the present disclosure were calculated therefrom.

[4] = test system: SR; assay: CCK-8 tumor cell proliferation, SR; assay type: cell-based, Human; conditions: Homo sapiens, SR, read-out: IC50 inhibiting proliferation of tumor cells, SR
In short: as §1

[5] = test system: Mino; assay: CCK-8 tumor cell proliferation, Mino; assay type: cell-based, Human; conditions: Homo sapiens; Table 15, ALK inhibitor based; Mino; read-out: IC50 inhibiting proliferation of tumor cells, Mino
In short: as §1

[6] = test system: CCRF-CEM; assay: CCK-8 tumor cell proliferation, CCRF-CEM; assay type: cell-based, Human; conditions: Homo sapiens, CCRF-CEM, read-out: IC50 inhibiting proliferation of tumor cells, CCRF-CEM
In short: as §1

[7] = test system: MM.1S; assay: CCK-8 tumor cell proliferation, MM.1S; assay type: cell-based; conditions: Homo sapiens, MM1.S; Table 20; MM.1S; given as number; read-out: IC50 inhibiting proliferation of tumor cells, MM.1S
In short: as §1

[8] = test system: LNcap; assay: CCK-8 tumor cell proliferation, LNcap; assay type: cell-based, Human; conditions: Homo sapiens
Description: (§3) The tumor cells used herein were cultured in a cell culture medium listed in table 4 at 37° C. in an incubator with 5% CO2. Prior to experimentation, all cells used were correctly identified by STR profiling, and tested negative for mycoplasma through routine screenings.
as §2, with “IC50 values of the compounds of the present disclosure (including the compounds in Tables 1 and 3, and compounds of examples) were measured using the Meilun Cell Counting Kit-8 kit from Dalian Meilun Biotech Co., Ltd. Assay details are as follows: tumor cells were seeded in a 96-well plate at a density listed in Table 5. After 24” for “After 24”

[9] = test system: Hep3B2.7-1; assay: CCK-8 tumor cell proliferation, Hep3B2.7-1; assay type: cell-based, Human; conditions: Homo sapiens
Description: as §3
as §2, with “IC50 values of the compounds of the present disclosure (including the compounds in Tables 1 and 3, and compounds of examples) were measured using the Meilun Cell Counting Kit-8 kit from Dalian Meilun Biotech Co., Ltd. Assay details are as follows: tumor cells were seeded in a 96-well plate at a density listed in Table 5. After 24” for “After 24”

[10] = test system: Kasumi-1; assay: CCK-8 tumor cell proliferation, Kasumi-1; assay type: cell-based, Human; conditions: Homo sapiens, Kasumi-1, read-out: IC50 inhibiting proliferation of tumor cells, Kasumi-1
Description: as §3
as §2, with “IC50 values of the compounds of the present disclosure (including the compounds in Tables 1 and 3, and compounds of examples) were measured using the Meilun Cell Counting Kit-8 kit from Dalian Meilun Biotech Co., Ltd. Assay details are as follows: tumor cells were seeded in a 96-well plate at a density listed in Table 5. After 24” for “After 24”

[11] = test system: Jurkat; assay: CCK-8 tumor cell proliferation, Jurkat; assay type: cell-based, Human; conditions: Homo sapiens, read-out: IC50 inhibiting proliferation of tumor cells, Jurkat
In short: as §1

[12] = test system: MM.1R; assay: CCK-8 tumor cell proliferation, MM.1R; assay type: cell-based; conditions: read-out: IC50 inhibiting proliferation of tumor cells, MM.1R
Description: as §3
as §2, with “IC50 values of the compounds of the present disclosure (including the compounds in Tables 1 and 3, and compounds of examples) were measured using the Meilun Cell Counting Kit-8 kit from Dalian Meilun Biotech Co., Ltd. Assay details are as follows: tumor cells were seeded in a 96-well plate at a density listed in Table 5. After 24” for “After 24”

[13] = Table 20, BCL-2 inhibitor based
[14] = Table 19, IRAK4 inhibitor based
[15] = Table 19, IRAK4 inhibitor based, Lncap, read-out: IC50 inhibiting proliferation of tumor cells, Lncap
[16] = Table 19, IRAK4 inhibitor based, Hep3B2.7-1, read-out: IC50 inhibiting proliferation of tumor cells, Hep3B2.7-1
[17] = Table 22, NTRK inhibitor based, HEP3B2.7-1, read-out: IC50 inhibiting proliferation of tumor cells, HEP3B2.7-1

Compound: CCc1cc2c(cc1N1CCC(N(C)Cc3ccc4c(c3)CN(C3CCC(=O)NC3=O)C4=O)CC1)C(C)(C)c1[nH]c3cc(C#N)ccc3c1C2=O (centres unmarked) [GT-03474, 8-(4-(((2-(2,6-dioxopiperidin-3-yl)-1-oxoisoindolin-5-yl)methyl)(methyl)amino)piperidin-1-yl)-9-ethyl-6,6-dimethyl-11-oxo-6,11-dihydro-5H-benzo[b]carbazole-3-carbonitrile]
IC50 [1]: 500 to 1000 nM
IC50 ([2]; Table 15, ALK inhibitor based): 1000 to 5000 nM
IC50 ([3]; Table 15, ALK inhibitor based): 1000 to 5000 nM
IC50 ([4]; Table 15, ALK inhibitor based): < 50 nM

Compound: COc1cc2ncnc(Nc3cccc(Cl)c3F)c2cc1OCc1ccc2c(c1)CN(C1CCC(=O)NC1=O)C2=O (centres unmarked) [GT-03325, 3-(5-(((4-((3-chloro-2-fluorophenyl)amino)-7-methoxyquinazolin-6-yl)oxy)methyl)-1-oxoisoindolin-2-yl)piperidine-2,6-dione]
IC50 for inhibiting the proliferation of tumor cells, HCC827 [3]: A+

Compound: C=CC(=O)Nc1cc(Nc2nccc(-c3cn(C)c4ccccc34)n2)c(OC)cc1N(C)CCN(C)C [osimertinib, Osimertinib, reference compound]
IC50 for inhibiting the proliferation of tumor cells, HCC827 [3]: A+

Compound: CC1(C)CCC(CN2CCN(c3ccc(C(=O)NS(=O)(=O)c4ccc(NCC5CCOCC5)c([N+](=O)[O-])c4)c(Oc4cnc5[nH]ccc5c4)c3)CC2)=C(c2ccc(Cl)cc2)C1 [ABT-199, Venetoclax, reference compound]
IC50 ([6]; Table 20, given as number): > 10000 nM
IC50 [7]: > 10000 nM
IC50 [2, 13]: 1000 to 5000 nM
IC50 ([8]; Table 20, BCL-2 inhibitor based, LNcap, read-out: IC50 inhibiting proliferation of tumor cells, LNcap): 1000 to 5000 nM
IC50 [3, 13]: 5000 to 10000 nM
IC50 [4, 13]: 500 to 1000 nM

The next lines start with the values.

IC50 [1]: 100 to 500 nM
IC50 ([2]; Table 15, ALK inhibitor based): 100 to 500 nM
IC50 ([3]; Table 15, ALK inhibitor based): 100 to 500 nM
IC50 ([4]; Table 15, ALK inhibitor based): < 50 nM
IC50 [5]: 5000 to 10000 nM
Compound: COc1cc(N2CCC(N(C)Cc3cc4c(cc3F)C(=O)N(C3CCC(=O)NC3=O)C4)CC2)ccc1Nc1ncc(Cl)c(Nc2ccccc2P(C)(C)=O)n1 (centres unmarked) [GT-03601, 3-(5-(((1-(4-((5-chloro-4-((2-(dimethylphosphoryl)phenyl)amino)pyrimidin-2-yl)amino)-3-methoxyphenyl)piperidin-4-yl)(methyl)amino)methyl)-6-fluoro-1-oxoisoindolin-2-yl)piperidine-2,6-dione]

IC50 [6, 14]: 100 to 500 nM
IC50 [8, 15]: 100 to 500 nM
IC50 [9, 16]: < 50 nM
IC50 [10, 14]: 50 to 100 nM
IC50 [11, 14]: 50 to 100 nM
IC50 [12, 14]: 100 to 500 nM
Compound: O=C1CCC(N2Cc3cc(CN4CCN(c5ccc(-n6cc(NC(=O)c7coc(-c8ccnc(NCC(F)(F)F)c8)n7)c(C(F)F)n6)cc5)CC4)c(F)cc3C2=O)C(=O)N1 (centres unmarked) [GT-04269, N-(3-(difluoromethyl)-1-(4-(4-((2-(2,6-dioxopiperidin-3-yl)-6-fluoro-1-oxoisoindolin-5-yl)methyl)piperazin-1-yl)phenyl)-1H-pyrazol-4-yl)-2-(2-((2,2,2-trifluoroethyl)amino)pyridin-4-yl)oxazole-4-carboxamide]

IC50 [8, 15]: 100 to 500 nM
IC50 [9, 16]: 500 to 1000 nM
IC50 [10, 14]: 50 to 100 nM
IC50 [11, 14]: 1000 to 5000 nM
IC50 [12, 14]: 500 to 1000 nM
Compound: O=C1CCC(N2C(=O)c3ccc(CN4CCN(c5ccc(-n6cc(NC(=O)c7coc(-c8ccnc(NCC(F)(F)F)c8)n7)c(C(F)F)n6)cc5)CC4)cc3C2=O)C(=O)N1 (centres unmarked) [GT-04272, N-(3-(difluoromethyl)-1-(4-(4-((2-(2,6-dioxopiperidin-3-yl)-1,3-dioxoisoindolin-5-yl)methyl)piperazin-1-yl)phenyl)-1H-pyrazol-4-yl)-2-(2-((2,2,2-trifluoroethyl)amino)pyridin-4-yl)oxazole-4-carboxamide]

IC50 ([6]; Table 22, NTRK inhibitor based): 50 to 100 nM
IC50 [9, 17]: < 50 nM
IC50 ([10]; Table 22, NTRK inhibitor based): 500 to 1000 nM
IC50 ([11]; Table 22, NTRK inhibitor based): 100 to 500 nM
IC50 ([12]; Table 22, NTRK inhibitor based): < 50 nM
Compound: O=C1CCC(N2Cc3c(ccc(CN4CCN(c5cccc(-c6cnn7ccc(N8CCC[C@@H]8c8cc(F)ccc8F)nc67)n5)CC4)c3F)C2=O)C(=O)N1 (stereo partly drawn) [GT-04263, 3-(5-((4-(6-(5-((R)-2-(2,5-difluorophenyl)pyrrolidin-1-yl)pyrazolo[1,5-a]pyrimidin-3-yl)pyridin-2-yl)piperazin-1-yl)methyl)-4-fluoro-1-oxoisoindolin-2-yl)piperidine-2,6-dione]

IC50 ([6]; Table 22, NTRK inhibitor based): < 50 nM
IC50 [9, 17]: < 50 nM
IC50 ([10]; Table 22, NTRK inhibitor based): 100 to 500 nM
IC50 ([11]; Table 22, NTRK inhibitor based): 100 to 500 nM
IC50 ([12]; Table 22, NTRK inhibitor based): < 50 nM
Compound: O=C1CCC(N2Cc3cc(CN4CCN(c5cccc(-c6cnn7ccc(N8CCC[C@@H]8c8cc(F)ccc8F)nc67)n5)CC4)ccc3C2=O)C(=O)N1 (stereo partly drawn) [GT-04262, 3-(5-((4-(6-(5-((R)-2-(2,5-difluorophenyl)pyrrolidin-1-yl)pyrazolo[1,5-a]pyrimidin-3-yl)pyridin-2-yl)piperazin-1-yl)methyl)-1-oxoisoindolin-2-yl)piperidine-2,6-dione]

IC50 [6, 14]: < 50 nM
IC50 [8, 15]: 50 to 100 nM
IC50 [9, 16]: < 50 nM
IC50 [10, 14]: < 50 nM
IC50 [11, 14]: < 50 nM
IC50 [12, 14]: < 50 nM
Compound: O=C1CCC(N2Cc3c(CN4CCN(c5ccc(-n6cc(NC(=O)c7coc(-c8ccnc(NCC(F)(F)F)c8)n7)c(C(F)F)n6)cc5)CC4)cccc3C2=O)C(=O)N1 (centres unmarked) [GT-04271, N-(3-(difluoromethyl)-1-(4-(4-((2-(2,6-dioxopiperidin-3-yl)-1-oxoisoindolin-4-yl)methyl)piperazin-1-yl)phenyl)-1H-pyrazol-4-yl)-2-(2-((2,2,2-trifluoroethyl)amino)pyridin-4-yl)oxazole-4-carboxamide]
